From PubChem BioAssay (NCI)
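Each compound was tested at five concentrations against cells in 96-well plates for 48 hours. TGI is the concentration that stops growth completely.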

Legend:
Assay in all cases: DTP human tumour cell line panel, 48 h
T-47D breast = tested on: T-47D breast
SN12C renal = tested on: SN12C renal
MDA-MB-435 = tested on: MDA-MB-435
MDA-N = tested on: MDA-N
HL-60(TB) leukemia = tested on: HL-60(TB) leukemia
RXF 393 renal = tested on: RXF 393 renal
MALME-3M melanoma = tested on: MALME-3M melanoma
DU-145 prostate = tested on: DU-145 prostate
SF-295 CNS = tested on: SF-295 CNS
K-562 leukemia = tested on: K-562 leukemia
OVCAR-4 ovarian = tested on: OVCAR-4 ovarian
ACHN renal = tested on: ACHN renal
SNB-75 CNS = tested on: SNB-75 CNS
SF-539 CNS = tested on: SF-539 CNS
PC-3 prostate = tested on: PC-3 prostate
SF-268 CNS = tested on: SF-268 CNS
BT-549 breast = tested on: BT-549 breast
HOP-92 NSCLC = tested on: HOP-92 NSCLC
HCC-2998 colon = tested on: HCC-2998 colon
TK-10 renal = tested on: TK-10 renal
HCT-15 colon = tested on: HCT-15 colon
UACC-62 melanoma = tested on: UACC-62 melanoma
OVCAR-5 ovarian = tested on: OVCAR-5 ovarian
UO-31 renal = tested on: UO-31 renal
CCRF-CEM leukemia = tested on: CCRF-CEM leukemia
NCI-H460 lung = tested on: NCI-H460 lung
SK-MEL-28 melanoma = tested on: SK-MEL-28 melanoma
HCT-116 colon = tested on: HCT-116 colon
COLO 205 colon = tested on: COLO 205 colon
KM12 colon = tested on: KM12 colon
U251 CNS = tested on: U251 CNS
OVCAR-3 ovarian = tested on: OVCAR-3 ovarian
OVCAR-8 ovarian = tested on: OVCAR-8 ovarian
SK-MEL-2 melanoma = tested on: SK-MEL-2 melanoma
MDA-MB-231 breast = tested on: MDA-MB-231 breast
SNB-19 CNS = tested on: SNB-19 CNS
SK-MEL-5 melanoma = tested on: SK-MEL-5 melanoma
MOLT-4 leukemia = tested on: MOLT-4 leukemia
SW-620 colon = tested on: SW-620 colon
MCF7 breast = tested on: MCF7 breast
NCI/ADR-RES ovarian = tested on: NCI/ADR-RES ovarian
IGROV1 ovarian = tested on: IGROV1 ovarian
M14 melanoma = tested on: M14 melanoma
NCI-H23 lung = tested on: NCI-H23 lung
RPMI-8226 leukemia = tested on: RPMI-8226 leukemia
UACC-257 melanoma = tested on: UACC-257 melanoma
NCI-H522 lung = tested on: NCI-H522 lung
NCI-H226 lung = tested on: NCI-H226 lung
CAKI-1 renal = tested on: CAKI-1 renal
786-0 renal = tested on: 786-0 renal
A549 NSCLC = tested on: A549 NSCLC
A498 renal = tested on: A498 renal
HT29 colon = tested on: HT29 colon
LOX IMVI melanoma = tested on: LOX IMVI melanoma
SK-OV-3 ovarian = tested on: SK-OV-3 ovarian
EKVX NSCLC = tested on: EKVX NSCLC
HOP-62 NSCLC = tested on: HOP-62 NSCLC

Question: For `CC(C(N)=O)N(C)C(=O)c1cc2ccccc2[n+](Cc2ccccc2)c1` (stereo not given), which TGI (T-47D breast) is on record?
Answer: > 100 µM

Question: What about the TGI (SN12C renal) of the same compound?
Answer: > 100 µM

Question: And the TGI (MDA-MB-435)?
Answer: > 100 µM

Question: What about the TGI (MDA-N) of the same compound?
Answer: > 100 µM

Question: What about the TGI (HL-60(TB) leukemia) of the same compound?
Answer: > 100 µM

Question: And the TGI (RXF 393 renal)?
Answer: > 100 µM

Question: And the TGI (MALME-3M melanoma)?
Answer: > 100 µM

Question: What about the TGI (DU-145 prostate) of the same compound?
Answer: > 100 µM

Question: And the TGI (SF-295 CNS)?
Answer: > 100 µM

Question: What about the TGI (K-562 leukemia) of the same compound?
Answer: > 100 µM

Question: And the TGI (OVCAR-4 ovarian)?
Answer: > 100 µM

Question: What about the TGI (ACHN renal) of the same compound?
Answer: > 100 µM

Question: And the TGI (SNB-75 CNS)?
Answer: > 100 µM

Question: What about the TGI (SF-539 CNS) of the same compound?
Answer: > 100 µM

Question: What about the TGI (PC-3 prostate) of the same compound?
Answer: > 100 µM

Question: And the TGI (SF-268 CNS)?
Answer: > 100 µM

Question: What about the TGI (BT-549 breast) of the same compound?
Answer: > 100 µM

Question: What about the TGI (HOP-92 NSCLC) of the same compound?
Answer: > 100 µM

Question: And the TGI (HCC-2998 colon)?
Answer: > 100 µM

Question: What about the TGI (TK-10 renal) of the same compound?
Answer: > 100 µM

Question: And the TGI (HCT-15 colon)?
Answer: > 100 µM

Question: What about the TGI (UACC-62 melanoma) of the same compound?
Answer: > 100 µM

Question: And the TGI (OVCAR-5 ovarian)?
Answer: > 100 µM

Question: And the TGI (UO-31 renal)?
Answer: > 100 µM

Question: What about the TGI (CCRF-CEM leukemia) of the same compound?
Answer: > 100 µM

Question: And the TGI (NCI-H460 lung)?
Answer: > 100 µM

Question: What about the TGI (SK-MEL-28 melanoma) of the same compound?
Answer: > 100 µM

Question: And the TGI (HCT-116 colon)?
Answer: > 100 µM

Question: What about the TGI (COLO 205 colon) of the same compound?
Answer: > 100 µM

Question: What about the TGI (KM12 colon) of the same compound?
Answer: > 100 µM

Question: And the TGI (U251 CNS)?
Answer: > 100 µM

Question: What about the TGI (OVCAR-3 ovarian) of the same compound?
Answer: > 100 µM

Question: And the TGI (OVCAR-8 ovarian)?
Answer: > 100 µM

Question: What about the TGI (SK-MEL-2 melanoma) of the same compound?
Answer: > 100 µM

Question: And the TGI (MDA-MB-231 breast)?
Answer: > 100 µM

Question: What about the TGI (SNB-19 CNS) of the same compound?
Answer: > 100 µM

Question: What about the TGI (SK-MEL-5 melanoma) of the same compound?
Answer: > 100 µM

Question: And the TGI (MOLT-4 leukemia)?
Answer: > 100 µM

Question: And the TGI (SW-620 colon)?
Answer: > 100 µM

Question: And the TGI (MCF7 breast)?
Answer: > 100 µM

Question: What about the TGI (NCI/ADR-RES ovarian) of the same compound?
Answer: > 100 µM

Question: And the TGI (IGROV1 ovarian)?
Answer: > 100 µM

Question: What about the TGI (M14 melanoma) of the same compound?
Answer: > 100 µM

Question: What about the TGI (NCI-H23 lung) of the same compound?
Answer: > 100 µM

Question: And the TGI (RPMI-8226 leukemia)?
Answer: > 100 µM

Question: And the TGI (UACC-257 melanoma)?
Answer: > 100 µM

Question: What about the TGI (NCI-H522 lung) of the same compound?
Answer: > 100 µM

Question: And the TGI (NCI-H226 lung)?
Answer: > 100 µM

Question: What about the TGI (CAKI-1 renal) of the same compound?
Answer: > 100 µM

Question: What about the TGI (786-0 renal) of the same compound?
Answer: > 100 µM

Question: What about the TGI (A549 NSCLC) of the same compound?
Answer: > 100 µM

Question: What about the TGI (A498 renal) of the same compound?
Answer: > 100 µM

Question: What about the TGI (HT29 colon) of the same compound?
Answer: > 100 µM

Question: Which results are given for `CCOC(=O)[C@@H]1C2C(=C[C@H]3[C@H]1C(=O)N1CCCC[C@H]31)CCCN2C(=O)OCc1ccccc1` (stereo not given in full)?
Answer: TGI (LOX IMVI melanoma): > 100 µM; TGI (T-47D breast): > 100 µM; TGI (SN12C renal): > 100 µM; TGI (MDA-MB-435): > 100 µM; TGI (MDA-N): > 100 µM; TGI (HL-60(TB) leukemia): 45 µM; TGI (RXF 393 renal): > 100 µM; TGI (SK-OV-3 ovarian): > 100 µM; TGI (MALME-3M melanoma): > 100 µM; TGI (DU-145 prostate): > 100 µM; TGI (SF-295 CNS): > 100 µM; TGI (K-562 leukemia): > 100 µM; TGI (OVCAR-4 ovarian): > 100 µM; TGI (ACHN renal): > 100 µM; TGI (SNB-75 CNS): > 100 µM; TGI (SF-539 CNS): > 100 µM; TGI (PC-3 prostate): 77.6 µM; TGI (SF-268 CNS): 60.3 µM; TGI (BT-549 breast): 62.5 µM; TGI (HOP-92 NSCLC): > 100 µM; TGI (HCC-2998 colon): 53.1 µM; TGI (TK-10 renal): > 100 µM; TGI (HCT-15 colon): > 100 µM; TGI (UACC-62 melanoma): 39.2 µM; TGI (OVCAR-5 ovarian): > 100 µM; TGI (UO-31 renal): > 100 µM; TGI (CCRF-CEM leukemia): > 100 µM; TGI (NCI-H460 lung): 82.6 µM; TGI (SK-MEL-28 melanoma): > 100 µM; TGI (HCT-116 colon): > 100 µM; TGI (COLO 205 colon): 51.3 µM; TGI (KM12 colon): > 100 µM; TGI (U251 CNS): > 100 µM; TGI (OVCAR-3 ovarian): > 100 µM; TGI (OVCAR-8 ovarian): > 100 µM; TGI (SK-MEL-2 melanoma): 56.8 µM; TGI (MDA-MB-231 breast): > 100 µM; TGI (SNB-19 CNS): > 100 µM; TGI (EKVX NSCLC): > 100 µM; TGI (SK-MEL-5 melanoma): > 100 µM; TGI (MOLT-4 leukemia): 38.2 µM; TGI (SW-620 colon): > 100 µM; TGI (MCF7 breast): > 100 µM; TGI (NCI/ADR-RES ovarian): 81.2 µM; TGI (IGROV1 ovarian): > 100 µM; TGI (M14 melanoma): > 100 µM; TGI (NCI-H23 lung): 93.9 µM; TGI (RPMI-8226 leukemia): 46.4 µM; TGI (UACC-257 melanoma): > 100 µM; TGI (NCI-H522 lung): 45.2 µM; TGI (NCI-H226 lung): > 100 µM; TGI (HOP-62 NSCLC): > 100 µM; TGI (CAKI-1 renal): > 100 µM; TGI (786-0 renal): > 100 µM; TGI (A549 NSCLC): > 100 µM; TGI (A498 renal): 96 µM; TGI (HT29 colon): > 100 µM
